In patent US8796302B2 (priority 2004, dated 2014):

Key:
[1] = test system: dopaminergic neurons in rat primary mesencephalic neuron-glia cultures; experiment: [3H]DA uptake in LPS-treated mesencephalic neuron-glia cultures; format: cell-based; conditions: LPS 10 ng/ml, 7 days; for LPS-induced decrease in [3H]-dopamine uptake: 30 min pretreatment
Description: Neuron-glia cultures were prepared from the ventral mesencephalic tissues of embryonic day 13-14 Fisher F344 rats or day 12-13 wild-type C57BL/6J (gp91phox^+/+) mice. Dissociated cells were seeded at 1×10^5/well and 5×10^5/well to poly-D-lysine-coated 96-well and 24-well plates, respectively. Cells were maintained at about 37° C. in a humidified atmosphere of 5% CO2 and 95% air, in minimal essential medium (MEM) containing 10% fetal bovine serum (FBS), 10% horse serum (HS), 1 gm/l glucose, 2 mM L-glutamine, 1 mM sodium pyruvate, 100 μM nonessential amino acids, 50 U/ml penicillin, and 50 μg/ml streptomycin. Seven-day-old cultures were used for treatment.
Dextromethorphan (obtained from Sigma-Aldrich (St. Louis, Mo.) as dextromethorphan hydrobromide) was freshly prepared as a stock solution (1 mM) in ddH2O and sterile-filtered right before use. For treatment of the cultures, the DM was serially diluted (10×) with fresh culture medium containing 2% of fetal bovine and horse serum. The neuron-glia cultures were pretreated with 10^−5-10^−17M DM 30 minutes prior to treatment with 10 ng/ml of LPS.
Seven days after treatment, the degeneration of dopaminergic neurons was assessed by [^3H]-dopamine (DA) uptake assays. The [^3H]-DA uptake assays were performed as follows. Cultures were washed twice with warm Krebs-Ringer buffer (KRB, 16 mM sodium phosphate, 119 mM NaCl, 4.7 mM KCl, 1.8 mM CaCl2, 1.2 mM MgSO4, 1.3 mM EDTA, and 5.6 mM glucose; pH7.4) and then incubated for about 20 minutes at about 37° C. with 1 μM [^3H]-DA in KRB in order to allow for the uptake of DA. Afterwards, the cultures were washed (three times) with ice-cold KRB and the cells were collected in 1 N NaOH. Radioactivity was determined by liquid scintillation counting.
This example tests whether or not post-treatment with DM is still neuroprotective in LPS-induced neurotoxicity. Neuron-glia co-cultures as prepared in Example 1 were first treated with LPS (20 ng/ml) for twelve hours, and then LPS was removed by removing the media from the cultures and washing twice with PBS. Different concentrations of DM (10^−5, 10^−10, and 10^−14 M) were then added to the cultures and incubation was continued for another 6 or 7 days. The DA uptake and the superoxide production were measured as in Example 1 and 5.
Neuron-glia cell cultures were prepared as in Example 1, and pretreated with the various peptide fragments of Table 1 (peptide fragments were obtained from BACHEM) for 30 minutes followed by addition of 5 ng/ml of LPS. DA neurotoxicity was measured as an Example 1 at 7 days post treatment.
DA neurotoxicity was measured at 7 days post treatment as in Example 1. Dopaminergic neuronal death was determined at 7 days post treatment using immunocytochemical staining as in Example 2.
Neuron-glia cultures were prepared from the ventral mesencephalic tissues of embryonic day 13-14 rats. Dissociated cells were seeded at 1×10^5/well and 5×10^5/well to poly-D-lysine-coated 96-well and 24-well plates, respectively.

[2] = test system: CD-1 mice given LPS/GalN; experiment: Serum ALT in LPS/GalN endotoxic shock; format: in vivo, mouse; conditions: for serum ALT level: 12 hrs after LPS/GalN
Description: Endotoxic shock was induced in the mice by administering a single intraperitoneal dose of lipopolysaccharide/D-(+/−)Glactosomine (Sigma, St. Louis, Mo.) (LPS/GalN) (20 μg/700 mg/kg) in saline. To test whether DM has protective effects on septic shock, varying concentrations (6.25, 12.5 and 25 mg/kg) of DM were injected into the mice subcutaneously 30 min before, and 2, and 4 hr after the injection of LPS/GalN. Control mice received the same amount of saline. At different time points, the animals were killed, and serum and liver samples were collected.
To examine the therapeutic effects of DM, animals were treated with […] DM at 30 min before LPS/GalN injection, and 30, 60 and 120 min after LPS/GalN administration. Serum ALT was measured to evaluate the therapeutic effects of the DM. Survival rate was evaluated within 12 hours after endotoxin administration.
Serum alanine aminotransferase (ALT) activity was assayed as a marker of hepatocellular death using a commercially available kit (Infinite ALT, Sigma, St. Louis, Mo.). A portion of the liver was fixed in 10% neutral formalin, processed by standard histological techniques, stained with hematoxylin and eosin, and examined for morphological evidence of liver injury.

[3] = test system: dopaminergic neurons in neuron-glia co-cultures; experiment: [3H]DA uptake in Aβ-treated neuron-glia cultures; format: cell-based, rat; conditions: micro- and femtomolar DM, 30 min pretreatment, Aβ 0.75 μM
Description: Neuron-glia co-cultures were prepared and treated with vehicle alone, Aβ 0.75 μM alone, or DM 30 min prior to treatment with Aβ0.75 μM similar to Example 1. Amyloid-β peptide (25-35 and 1-42) was obtained from American Peptide Co., Inc (Sunnyvale, Calif.). Neurotoxicity was assessed by DA uptake as in Example 1. Results are expressed as a percentage of the control cultures and are the mean±S.E.M. of three to eight individual experiments with triplicates in each experiment. ##, P<0.01 compared with the control culture; *, P<0.05 compared with Aβ-treated culture.

[4] = test system: neurons in neuron-enriched cultures; experiment: MAP-2 / TH immunostaining morphology of neuron-enriched cultures; format: cell-based, rat; conditions: 7 days exposure; media conditioned 48 hours; VPA 0.6 mM
Description: Neuron-enriched cultures were immunostained with MAP-2 for morphological examination. FIGS. 40A-40D show morphological features of neuron-enriched cultures were examined after incubation with vehicle (A), 0.6 mM VPA (B), ACM (C) or ACM-VPA (D) for 7 days and then immunocytostaining with MAP-2 antibody.
The immunostaining was carried out according to the following procedure. Formaldehyde (3.7%)-fixed cultures were treated with 1% hydrogen peroxide (10 min) followed by sequential incubation with blocking solution (30 min), primary antibody (overnight, 4° C.), biotinylated secondary antibody (2 hours), and ABC reagents (40 min) (Vector Laboratories, Burlingame, Calif.). The color development was achieved by the addition of 3,3′-diaminobenzidine. For morphological analysis, the images were recorded with an inverted microscope (Nikon, Tokyo, Japan) connected to a charge-coupled device camera (DAGE-MTI, Michigan City, Ind.) operated with the MetaMorph software (Universal Imaging Corporation, Downingtown, Pa.). For visual counting of TH-IR neurons, nine representative areas per well of the 24-well plate were counted under the microscope at 100× magnification.
To specifically visualize morphological changes in DA neurons, we immunostained neuron-enriched cultures with anti-TH antibody. […]

Oc1ccc2c(c1)[C@@]13CCCC[C@H]1[C@@H](C2)NCC3 [3-HM, 3-hydroxymorphinan]
LPS-induced reduction in DA uptake ([1]; 3-HM 1-5 μM pretreatment): significantly attenuated the LPS-induced reduction in DA uptake

COc1ccc2c(c1)[C@@]13CCCC[C@H]1[C@@H](C2)N(C)CC3 [DM, d-3-methoxy-N-methylmorphinan]
serum ALT level ([2]; DM 12.5 mg/kg): about 25 % of LPS/GalN group | serum ALT level ([2]; DM 25 mg/kg): about 25 % of LPS/GalN group | time-dependent reduction of serum ALT level ([2]; DM 30 min pre-treatment and 30, 60, 120 min post-treatments): the later the DM treatment, the less protective | Aβ-induced neurotoxicity (DA uptake) [3]: neuroprotective effect | LPS-induced decrease in [3H]-dopamine uptake ([1]; DM 10^−5 and 10^−6 M): attenuated the LPS-induced decrease | LPS-induced decrease in [3H]-dopamine uptake ([1]; DM 10^−8 to 10^−12 M): no protective effects

CCCC(CCC)C(=O)O [VPA, Valproic acid]
neurite outgrowth (MAP-2 immunostaining) [4]: Much smaller effects
